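1) Cells in 96-well plates. 2) Compound, 48 h, 5 concentrations. 3) Linear interpolation between surrounding doses. 4) Unreached endpoint = highest concentration. The concentration for 50% growth inhibition is given as GI50.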 Calls of active or inactive are those of the source. No stated cut-off is given here; in the data, active = GI50 up to about 1.1 µM and inactive = higher.

This is an account of results in ChEMBL document CHEMBL1201862, “PubChem BioAssay data set” (2004).

Test systems include A549; CAKI-1; HCC 2998; KM12; MCF7; MDA-N; Malme-3M; NCI-H226; NCI-H23; OVCAR-3; SF-539; SK-MEL-2; SK-MEL-5; SK-OV-3; SR; T47D; TK-10; U-251; UACC-62.
Experiment in all cases: NCI tumour cell line growth inhibition, 48 h

With `Cc1ccc(S(=O)(=O)N/C(=C\C=C\c2ccccc2)C(=O)C(C)(C)C)cc1`, the GI50 in the assay with A549 is 46.5 µM (inactive); with CAKI-1 it was > 100 µM (inactive); in the assay on HCC 2998 it was > 100 µM (inactive); in the assay on KM12 it was > 100 µM (inactive); in the assay on MCF7 it was 73.1 µM (inactive); with MDA-N, > 100 µM (inactive). Besides, the GI50 in the assay with Malme-3M is > 100 µM (inactive); in the assay with NCI-H226, > 100 µM (inactive); in the assay with NCI-H23, 59.4 µM (inactive); in the assay on OVCAR-3 it was > 100 µM (inactive); in the assay with SF-539 it was 37.9 µM (inactive); with SK-MEL-2, > 100 µM (inactive). In addition, the GI50 is 56 µM (inactive) with SK-MEL-5; 38.6 µM (inactive) in the assay with SK-OV-3; > 100 µM (inactive) in the assay on SR; 85.1 µM (inactive) in the assay with T47D; > 100 µM (inactive) with TK-10; 63.1 µM (inactive) with U-251.
`CSC(Cc1ccc2c(c1)Sc1ccccc1O2)=[N+]1CCOCC1`: the GI50 in the assay on A549 is 63.8 µM (inactive); in the assay on CAKI-1, > 100 µM (inactive); in the assay with HCC 2998, 91.8 µM (inactive); in the assay with KM12, 51.4 µM (inactive); in the assay on MCF7, 40.2 µM (inactive); in the assay on MDA-N, 54.5 µM (inactive). The GI50 in the assay on Malme-3M was 26.4 µM (inactive); with NCI-H226, 55.8 µM (inactive); in the assay on NCI-H23, 40.7 µM (inactive); in the assay with OVCAR-3, 52.6 µM (inactive); in the assay with SF-539, 74.6 µM (inactive); in the assay with SK-MEL-2 it was > 100 µM (inactive). For the same compound, the GI50 was > 100 µM (inactive) in the assay with SK-OV-3; 3.37 µM (inactive) with SR; 65.5 µM (inactive) in the assay with T47D; > 100 µM (inactive) with TK-10; 48.1 µM (inactive) in the assay on U-251; 58.5 µM (inactive) with UACC-62.
Regarding `O=C(OC12CC3CC(CC(C3)C1)C2)c1ccc(NCc2cc(O)ccc2O)cc1`, the GI50 in the assay on A549 is 3.97 µM (inactive); with CAKI-1, 0.301 µM (active); in the assay with HCC 2998 it was 1.7 µM (inactive); in the assay on KM12, 1.16 µM (inactive); with MCF7, 0.48 µM (active); in the assay with MDA-N, 1.32 µM (inactive). For the same compound, the GI50 in the assay on Malme-3M was 0.625 µM (active); with NCI-H226, 1.33 µM (inactive); with NCI-H23, 1.07 µM (active); with OVCAR-3, 0.743 µM (active); in the assay with SF-539, 0.467 µM (active); in the assay with SK-MEL-2, 1.35 µM (inactive). Besides, the GI50 in the assay with SK-MEL-5 was 1.24 µM (inactive); with SK-OV-3, 2.99 µM (inactive); with SR it was 0.132 µM (active); in the assay with T47D it was 0.262 µM (active); with TK-10 it was 0.885 µM (active); with U-251, 0.701 µM (active). In addition, the GI50 in the assay on UACC-62 is 1.3 µM (inactive).
Turning to `Cc1[nH]c2ncn(N)c(=N)c2c1Cc1ccccc1`, the GI50 in the assay with A549 is 58.3 µM (inactive); in the assay on CAKI-1 it was > 100 µM (inactive); in the assay with HCC 2998, > 100 µM (inactive); in the assay on KM12, > 100 µM (inactive); in the assay with MCF7, 33 µM (inactive); in the assay on MDA-N, 35.3 µM (inactive). In addition, the GI50 with Malme-3M is 6.76 µM (inactive); in the assay with NCI-H226, > 100 µM (inactive); with NCI-H23, > 100 µM (inactive); in the assay with OVCAR-3, > 100 µM (inactive); in the assay on SF-539 it was 58.2 µM (inactive); in the assay on SK-MEL-2, > 100 µM (inactive). The GI50 in the assay on SK-MEL-5 is 19.1 µM (inactive); with SK-OV-3, > 100 µM (inactive); with SR it was > 100 µM (inactive); in the assay on T47D, 4.35 µM (inactive); with TK-10, > 100 µM (inactive); in the assay with U-251, > 100 µM (inactive). In the assay on UACC-62, the GI50 was 58.1 µM (inactive).
As to `O=c1cc(CO)oc(C(O)c2ccccc2)c1O` (configuration not stated), the GI50 in the assay on A549, with CAKI-1, with HCC 2998, in the assay on KM12, in the assay with MCF7 and in the assay on MDA-N was > 100 µM (inactive) in each case. Further, the GI50 in the assay with Malme-3M, in the assay on NCI-H226, in the assay with NCI-H23, in the assay on OVCAR-3, in the assay with SF-539 and in the assay on SK-MEL-2 was > 100 µM (inactive) throughout. Also, the GI50 in the assay with SK-MEL-5, in the assay with SK-OV-3, in the assay on SR, with T47D, with TK-10 and in the assay on U-251 was > 100 µM (inactive) each time. Also, the GI50 in the assay on UACC-62 was > 100 µM (inactive).
Take `C=C(C)C1CC2=C(C(=O)OC)C=C(O2)C(C(=C)C)[C@@H]2OC(=O)/C(=C\C1O)[C@H]2N(C)C` (some centres not stated): the GI50 with A549 is 13.9 µM (inactive); with CAKI-1 it was 7.71 µM (inactive); in the assay on HCC 2998 it was 14.7 µM (inactive); in the assay with KM12 it was 13.7 µM (inactive); in the assay with MCF7 it was 5.92 µM (inactive); with MDA-N, 11.4 µM (inactive). Besides, the GI50 in the assay with Malme-3M is 12.9 µM (inactive); in the assay on NCI-H226, 7.69 µM (inactive); with NCI-H23, 13.1 µM (inactive); in the assay with OVCAR-3, 12.6 µM (inactive); with SF-539, 7.4 µM (inactive); in the assay with SK-MEL-2, 13 µM (inactive). For the same compound, the GI50 in the assay on SK-MEL-5 is 14.2 µM (inactive); in the assay with SK-OV-3, 24.9 µM (inactive); with SR it was 6.92 µM (inactive); with T47D, 11.7 µM (inactive); in the assay with TK-10, 1.6 µM (inactive); with U-251, 15.7 µM (inactive). Also, in the assay on UACC-62, the GI50 is 14.5 µM (inactive).
`CC(C)[Si](OC1=CCCCCC12C(=O)N(C)c1ccccc12)(C(C)C)C(C)C` (configuration not stated): the GI50 is 19.8 µM (inactive) with A549; 16.5 µM (inactive) with CAKI-1; 21.7 µM (inactive) with HCC 2998; 18.5 µM (inactive) with KM12; 16.9 µM (inactive) in the assay with MCF7; 28.4 µM (inactive) in the assay on MDA-N. Moreover, the GI50 is 20.2 µM (inactive) with Malme-3M; 20.2 µM (inactive) in the assay with NCI-H226; 19.5 µM (inactive) in the assay with NCI-H23; 16.3 µM (inactive) with OVCAR-3; 22.5 µM (inactive) in the assay on SF-539; 18.2 µM (inactive) with SK-MEL-2. Also, the GI50 in the assay with SK-MEL-5 was 17.5 µM (inactive); in the assay with SK-OV-3, 20.5 µM (inactive); in the assay with SR it was 29.9 µM (inactive); with T47D, 2.88 µM (inactive); in the assay with TK-10, 29 µM (inactive); in the assay with U-251 it was 18.5 µM (inactive). Moreover, in the assay on UACC-62, the GI50 is 18.2 µM (inactive).
`O=C1c2cc3c(cc2CC12Cc1ccccc1C2)CCC3`: the GI50 with A549 was 44.4 µM (inactive); in the assay on CAKI-1 it was 15.5 µM (inactive); in the assay with HCC 2998, 31 µM (inactive); in the assay on KM12, 24.9 µM (inactive); in the assay with MCF7, 18.8 µM (inactive); in the assay on MDA-N, 27.3 µM (inactive). For the same compound, the GI50 in the assay on Malme-3M was 28.1 µM (inactive); in the assay with NCI-H226, 23.4 µM (inactive); in the assay on NCI-H23, 50.5 µM (inactive); in the assay with OVCAR-3, 41.8 µM (inactive); in the assay on SF-539 it was 31.4 µM (inactive); in the assay on SK-MEL-2, 23.5 µM (inactive). In addition, the GI50 in the assay on SK-MEL-5 is 18.3 µM (inactive); in the assay with SK-OV-3, > 100 µM (inactive); with SR, 35.9 µM (inactive); in the assay on T47D, 45.9 µM (inactive); in the assay with TK-10, 42.5 µM (inactive); in the assay on U-251 it was 37.6 µM (inactive).
Turning to `O=C1/C(=C\c2ccc([N+](=O)[O-])cc2)Sc2scc(-c3ccc(O)c(O)c3)[n+]21`, the GI50 in the assay on A549 was 17.6 µM (inactive); in the assay with CAKI-1, 2.77 µM (inactive); with HCC 2998, 4.97 µM (inactive); in the assay with KM12 it was 10.9 µM (inactive); in the assay on MCF7, 3.56 µM (inactive); in the assay on MDA-N it was 5.41 µM (inactive). Moreover, the GI50 with NCI-H226 was 17.8 µM (inactive); with NCI-H23 it was 14.9 µM (inactive); in the assay on OVCAR-3, 2.51 µM (inactive); in the assay with SF-539 it was 5.02 µM (inactive); in the assay with SK-MEL-2, 14.7 µM (inactive); with SK-MEL-5, 3.87 µM (inactive). The GI50 was 12.7 µM (inactive) with SK-OV-3; 2.62 µM (inactive) in the assay with SR; 12.8 µM (inactive) in the assay on T47D; 2.26 µM (inactive) in the assay on TK-10; 6.4 µM (inactive) in the assay with U-251; 5.61 µM (inactive) in the assay on UACC-62.
On to `N#Cc1c(Nc2nc3ccccc3s2)c2ccccc2n2c1nc1ccccc12`, for which the GI50 in the assay with A549, with CAKI-1, with HCC 2998, in the assay on KM12, in the assay on MCF7 and in the assay on MDA-N was > 100 µM (inactive) each time. In addition, the GI50 in the assay on Malme-3M, with NCI-H23, in the assay with OVCAR-3, in the assay on SF-539, with SK-MEL-2 and in the assay on SK-MEL-5 was > 100 µM (inactive) each time. The GI50 in the assay on SR was > 100 µM (inactive); in the assay on T47D, > 100 µM (inactive); with TK-10 it was > 100 µM (inactive); with U-251, 90.8 µM (inactive); with UACC-62, > 100 µM (inactive).
As for `Cc1ccc(C)c(COCCOCn2c(=O)[nH]c(=O)c3cc(Br)ccc32)c1`, the GI50 in the assay on A549 was > 100 µM (inactive); with CAKI-1, 81.1 µM (inactive); in the assay on HCC 2998, > 100 µM (inactive); in the assay on KM12, > 100 µM (inactive); in the assay on MCF7 it was > 100 µM (inactive); with MDA-N it was > 100 µM (inactive). For the same compound, the GI50 with Malme-3M was 71.8 µM (inactive); with NCI-H226 it was > 100 µM (inactive); with NCI-H23 it was > 100 µM (inactive); in the assay with OVCAR-3, > 100 µM (inactive); with SF-539, 99.3 µM (inactive); with SK-MEL-2 it was > 100 µM (inactive). Also, the GI50 with SK-OV-3 is > 100 µM (inactive); in the assay with SR, > 100 µM (inactive); with T47D, 74.6 µM (inactive); in the assay on TK-10, 55.3 µM (inactive); in the assay on U-251, > 100 µM (inactive); with UACC-62 it was 53 µM (inactive).
